In US11446287B2, “Compounds and methods for EP300 or CBP modulation and indications therefor” (Opna Immuno-Oncology SA, priority 2019, dated 2022):

target: T1, Recombinant human BRD4 containing dual bromodomains (BRD4-BD12 (1-477)) (Homo sapiens, UniProt O60885); assay: BRD4 Alphascreen binding assay
T1 construct: Recombinant human BRD4 containing dual bromodomains (BRD4-BD12 (1-477)); made in house; host or cells: E. coli BL21-CodonPlus (DE3), modified pET vector
Procedure, shortened: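 AlphaScreen proximity between Ni-chelate-bound BRD4-BD12 (1-477) and streptavidin-captured H4 K5/K8/K12/K16-acetyl peptide measured after 1 h room-temperature compound incubation and 30 min with 7.5 μg/ml beads. Buffer: 50 mM HEPES pH 7.5, 50 mM NaCl, 0.01% BSA, 0.01% Triton X-100; data plate-normalized and four-parameter fit for IC50.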

First: Cc1noc(C)c1-c1cnc2c(c1)c(-c1c(Cl)cc(C(=O)O)cc1OC(C)C)cn2-c1cnc(C2CC2)nc1 [P-0393, 3-chloro-4-(1-(2-cyclopropylpyrimidin-5-yl)-5-(3,5-dimethylisoxazol-4-yl)-1H-pyrrolo[2,3-b]pyridin-3-yl)-5-isopropoxybenzoic acid]
Second: Cc1noc(C)c1-c1cnc2c(c1)c(-c1c(Cl)cc(C(=O)O)cc1OC(C)C)cn2C1(C)CCOCC1 [P-0404, 3-chloro-4-(5-(3,5-dimethylisoxazol-4-yl)-1-(4-methyltetrahydro-2H-pyran-4-yl)-1H-pyrrolo[2,3-b]pyridin-3-yl)-5-isopropoxybenzoic acid]
The IC50 of the first is lower: 1 to 8 µM for the first, 8 to 1000 µM for the second. The first is the more potent here.

First: Cc1noc(C)c1-c1cnc2c(c1)c(-c1c(F)cc(C(=O)O)cc1OC1CC1)cn2C(C1CC1)C1CC1 [P-0394, 3-cyclopropoxy-4-(1-(dicyclopropylmethyl)-5-(3,5-dimethylisoxazol-4-yl)-1H-pyrrolo[2,3-b]pyridin-3-yl)-5-fluorobenzoic acid]
Second: Cc1noc(C)c1-c1cnc2c(c1)c(-c1c(F)cc(C(=O)O)cc1OC1CC1)cn2C1CCOCC1 [P-0397, 3-cyclopropoxy-4-(5-(3,5-dimethylisoxazol-4-yl)-1-(tetrahydro-2H-pyran-4-yl)-1H-pyrrolo[2,3-b]pyridin-3-yl)-5-fluorobenzoic acid]
The IC50 of the first is lower: 1 to 8 µM for the first, 8 to 1000 µM for the second. The first is the more potent here.

`Cc1noc(C)c1-c1cnc2c(c1)c(-c1c(Cl)cc(C(=O)O)cc1OC(F)(F)F)cn2-c1ncccc1C#N` [P-0395, 3-chloro-4-(1-(3-cyanopyridin-2-yl)-5-(3,5-dimethylisoxazol-4-yl)-1H-pyrrolo[2,3-b]pyridin-3-yl)-5-(trifluoromethoxy)benzoic acid] and `Cc1noc(C)c1-c1cnc2c(c1)c(-c1c(Cl)cc(C(=O)O)cc1OC1CCC1)cn2-c1ncccc1C#N` [P-0396, 3-chloro-4-(1-(3-cyanopyridin-2-yl)-5-(3,5-dimethylisoxazol-4-yl)-1H-pyrrolo[2,3-b]pyridin-3-yl)-5-cyclobutoxybenzoic acid] fall in the same range of IC50: 1 to 8 µM for the first, 1 to 8 µM for the second.

First: CCOc1nc(C(=O)O)c(Cl)cc1-c1cn(C2CCOCC2)c2ncc(-c3c(C)noc3C)cc12 [P-0398, 3-chloro-5-(5-(3,5-dimethylisoxazol-4-yl)-1-(tetrahydro-2H-pyran-4-yl)-1H-pyrrolo[2,3-b]pyridin-3-yl)-6-ethoxypicolinic acid]
Second: Cc1cc(C(=O)O)cc(OC(C)C)c1-c1cn(C2CCOCC2)c2ncc(-c3c(C)noc3C)cc12 [P-0402, 4-(5-(3,5-dimethylisoxazol-4-yl)-1-(tetrahydro-2H-pyran-4-yl)-1H-pyrrolo[2,3-b]pyridin-3-yl)-3-isopropoxy-5-methylbenzoic acid]
The IC50 of the first is higher: 8 to 1000 µM for the first, 1 to 8 µM for the second. The second is the more potent here.

`Cc1noc(C)c1-c1cnc2c(c1)c(-c1ccc(C(=O)O)cc1OC(F)(F)F)cn2-c1ccc(=O)n(C)c1` [P-0399, 4-(5-(3,5-dimethylisoxazol-4-yl)-1-(1-methyl-6-oxo-1,6-dihydropyridin-3-yl)-1H-pyrrolo[2,3-b]pyridin-3-yl)-3-(trifluoromethoxy)benzoic acid] and `CCc1noc(C)c1-c1cnc2c(c1)c(-c1ccc(C(=O)O)cc1OC(F)(F)F)cn2C1CCOCC1` [P-0400, 4-(5-(3-ethyl-5-methylisoxazol-4-yl)-1-(tetrahydro-2H-pyran-4-yl)-1H-pyrrolo[2,3-b]pyridin-3-yl)-3-(trifluoromethoxy)benzoic acid] fall in the same range of IC50: 1 to 8 µM for the first, 1 to 8 µM for the second.

Compared with `CCc1onc(C)c1-c1cnc2c(c1)c(-c1ccc(C(=O)O)cc1OC(F)(F)F)cn2C1CCOCC1` [P-0401, 4-(5-(5-ethyl-3-methylisoxazol-4-yl)-1-(tetrahydro-2H-pyran-4-yl)-1H-pyrrolo[2,3-b]pyridin-3-yl)-3-(trifluoromethoxy)benzoic acid], `Cc1noc(C)c1-c1cnc2c(c1)c(-c1ccc(C(=O)O)cc1OC(C)C)cn2C1(C)CCOCC1` [P-0403, 4-(5-(3,5-dimethylisoxazol-4-yl)-1-(4-methyltetrahydro-2H-pyran-4-yl)-1H-pyrrolo[2,3-b]pyridin-3-yl)-3-isopropoxybenzoic acid] is higher in IC50: 1 to 8 µM for the first, 8 to 1000 µM for the second.
